In series [1] the test system is IL-6 cytokine output from THP-1s. Put plainly: THP-1 AlphaLISA IL-6 cytokine assay. The class given is cell-based. The settings on record: LPS then nigericin, Table 1. The protocol: (§1) The cytokine inhibition profiles of compounds of formula (I) were determined in a differentiated THP-1 cell assay. All assays were performed in RPMI-1640 growth medium (Gibco), supplemented with 10% fetal bovine serum (FBS; Gibco), 1% penicillin-streptomycin and 1% sodium pyruvate unless specified otherwise. The IL-1β and IL-6 cytokine inhibition assays were each run in a background of differentiated THP-1 cells as described below. All reagents described were from Sigma-Aldrich unless specified otherwise. Compounds were prepared as 10 mM DMSO stocks.
(§2) THP-1 cells were expanded as a suspension up to 80% confluence in appropriate growth medium. Cells were harvested, suspended, and treated with an appropriate concentration of phorbol 12-myristate 13-acetate (PMA) over a 72 hr period (37° C./5% CO2).
(§3) Following 72 hrs of THP-1 cell incubation, cellular medium was removed and replaced with fresh growth media containing 1% of FBS. Working concentrations of compounds were prepared separately in 10% FBS treated growth medium and pre-incubated with the cells for 30 minutes (37° C./5% CO2). Following the 30 minute compound pre-incubation, THP-1s were treated with an appropriate concentration of LPS and the THP-1s were subsequently incubated for a 24 hr period (37° C./5% CO2). An appropriate final concentration of Nigericin was then dispensed into the THP-1 plates and incubated for 1 hour (37° C./5% CO2) before THP-1 supernatants were harvested and collected in separate polypropylene 96-well holding plates.
(§4) Reagents from each of the IL-1β and IL-6 commercial kits (Perkin Elmer) were prepared and run according to the manufacturer's instructions. Subsequently, fluorescence signal detection in a microplate reader was measured (EnVision® Multilabel Reader, Perkin Elmer).
(§5) Percentage inhibition was calculated per cytokine by normalising the sample data to the high and low controls used within each plate (+/− LPS respectively). Percentage inhibition was then plotted against compound concentration and the 50% inhibitory concentration (IC50) was determined from the resultant concentration-response curve.

Series [2] has as its system IL-1β cytokine output from THP-1s. Put plainly: THP-1 AlphaLISA IL-1β cytokine assay. Format: cell-based. The settings on record: Homo sapiens, THP-1, differentiated THP-1 cells, LPS then nigericin; Table 1. The procedure: as §1, §2, §3, §4, §5
A further series deals with human hepatocytes. The series is described as follows: Hepatocyte stability assay, human. The class given is in vitro ADME. The settings on record: 10 μM compound. An excerpt:
(§6) Defrosted cryo-preserved hepatocytes (viability >70%) were used to determine the metabolic stability of a compound via calculation of intrinsic clearance (Clint; a measure of the removal of a compound from the liver in the absence of blood flow and cell binding). Clearance data are particularly important for in vitro work as they can be used in combination with in vivo data to predict the half-life and oral bioavailability of a drug.
(§7) The metabolic stability in hepatocytes assay involves a time-dependent reaction using both positive and negative controls. The cells were pre-incubated at 37° C. and spiked with test compound (and positive control); samples were taken at pre-determined time intervals were analysed to monitor the change in concentration of the initial drug compound over 60 minutes. A buffer incubation reaction (with no hepatocytes present) acted as a negative control and two cocktail solutions, containing compounds with known high and low clearance values (verapamil/7-hydroxycoumarin and propranolol/diltiazem), acted as positive controls. • 1. The assay was run with a cell concentration of 0.5×10^6 cells/mL in Leibovitz buffer. • 2. All compounds and controls were run in duplicate. • 3. Compound concentration was 10 μM. • 4. All compounds and controls were incubated with both cells and buffer to show turnover was due to hepatic metabolism. • 5. All wells on the incubation plate had 326.7 μL of either cells or buffer added. • 6. Prior to assay, cell and buffer-only incubation plates were preincubated for 10 mins at 37° C. • 7. The assay was initiated by adding compounds, 3.3 μL of 1 mM in 10% DMSO-90% Buffer; final DMSO concentration was 0.1%. • 8. Samples were taken at regular timepoints (0, 5, 10, 20, 40, 60 min) until 60 mins. • 9. Sample volume was 40 μL and was added to 160 μL of crash solvent (acetonitrile with internal standard) and stored on ice. • 10. At the end of the assay, the crash plates were centrifuged at 3500 rpm for 20 mins at 4° C. • 11. 80 μL of clear supernatant was removed and mixed with 80 μL of deionised water before being analysed by LC-MS/MS.
(§8) Raw LC-MS/MS data was exported to, and analysed in, Microsoft Excel for determination of intrinsic clearance. The percentage remaining of a compound was monitored using the peak area of the initial concentration as 100%. Intrinsic clearance and half-life values were calculated using a graph of the natural log of percentage remaining versus the time of reaction in minutes. Half-life (min) and intrinsic clearance (Clint in μL min^−1 10^−6 cells) values were calculated using the gradient of the graph (the elimination rate constant, k) and Equations 1 and 2.

Series [3] in a line: Hepatocyte stability assay, human. The class given is in vitro ADME. The settings on record: human, cryopreserved hepatocytes, 10 μM compound, read-out: T½.
Text: as §6, §7, §8

Series [4] relates to NRF2 (nuclear factor erythroid 2-related factor 2). Put plainly: NRF2 +/-GSH activation assay (DiscoverX PathHunter NRF2 translocation kit, U2OS cells). Format: cell-based. The settings on record: for Emax (%) +GSH / Emax (%) −GSH: normalised to dimethyl fumarate high control.
Series [5] in a line: Hepatocyte stability assay, mouse. Format: in vitro ADME. The settings on record: mouse, cryopreserved hepatocytes, 10 μM compound, read-out: T½.
Text: as §6, §7, §8

The test system of the next series is mouse hepatocytes. Put plainly: Hepatocyte stability assay, mouse. The class given is in vitro ADME. The settings on record: 10 μM compound.
Text: as §6, §7, §8

[6] abbreviates: Homo sapiens, THP-1, differentiated THP-1 cells.

As for `C=C(CC(=O)OC1C(C)(C)c2cc(F)c(F)cc2C1(C)C)C(=O)OCC(=O)O` [Example 26, 2-((4-((5,6-difluoro-1,1,3,3-tetramethyl-2,3-dihydro-1H-inden-2-yl)oxy)-2-methylene-4-oxobutanoyl)oxy)acetic acid], the IC50 in series [1] (setting [6]) was 3 µM; in series [2], 7.9 µM. Besides, the results for the “Clint (μL min^−1 10^−6 cells)” value with human hepatocytes and with mouse hepatocytes were 9 μL min^−1 10^−6 cells and over 460 μL min^−1 10^−6 cells, respectively. In addition, the half-life at 10 μM in series [3] is 166 min; in series [5], under 3 min. Further, the EC50 in series [4] (+GSH) came to 7.7 µM; in series [4] (−GSH) it was 4.1 µM. The “Emax (%) +GSH” value in series [4] (+GSH) is reported as 145%. Moreover, the “Emax (%) −GSH” value in series [4] (−GSH) is on record as 216%.
In turn, `C=C(CC(=O)OC1CCc2cc(Cl)cc(Cl)c2C1)C(=O)OCC(=O)O` (single isomer, unassigned; enantiomer 1) [Example 10, 2-((4-((6,8-dichloro-1,2,3,4-tetrahydronaphthalen-2-yl)oxy)-2-methylene-4-oxobutanoyl)oxy)acetic acid (Enantiomer 1)] returned an IC50 in series [2] of 6.6 µM. For the same compound, the “Clint (μL min^−1 10^−6 cells)” value with human hepatocytes worked out at 18 μL min^−1 10^−6 cells; in the series with mouse hepatocytes, 225 μL min^−1 10^−6 cells. In addition, the half-life at 10 μM in series [3] turned out to be 81 min; in series [5], 7 min.
In series [2], `C=C(CC(=O)OC1CCc2cc(C(F)(F)F)ccc21)C(=O)OCC(=O)O` (stereo not shown) [Example 17, 2-((2-methylene-4-oxo-4-((5-(trifluoromethyl)-2,3-dihydro-1H-inden-1-yl)oxy)butanoyl)oxy)acetic acid] displayed an IC50 of 2.8 µM. Moreover, the “Clint (μL min^−1 10^−6 cells)” value in the series on human hepatocytes is 6 μL min^−1 10^−6 cells; with mouse hepatocytes, 72 μL min^−1 10^−6 cells. The half-life at 10 μM is 227 min in series [3] and 21 min in series [5]. For the same compound, the EC50 in series [4] (+GSH) is 35.4 µM; in series [4] (−GSH), 29.2 µM. Besides, the “Emax (%) +GSH” value in series [4] (+GSH) came out at 184%. For the same compound, in series [4] (−GSH), the “Emax (%) −GSH” value is listed as 305%.
`C=C(CC(=O)OC1CCCc2c(Cl)cc(Cl)cc21)C(=O)OCC(=O)O` (single isomer, unassigned; enantiomer 1) [Example 24, 2-((4-((5,7-dichloro-1,2,3,4-tetrahydronaphthalen-1-yl)oxy)-2-methylene-4-oxobutanoyl)oxy)acetic acid (Enantiomer 1)] displayed an IC50 in series [1] (setting [6]) of 4.1 µM. Further, half-maximal inhibition in series [2] (IC50) required 3.3 µM. Moreover, the “Clint (μL min^−1 10^−6 cells)” value in the series with human hepatocytes was 54 μL min^−1 10^−6 cells. Moreover, the half-life at 10 μM in series [3] is 32 min. Further, in series [4] (+GSH), the EC50 came to 5.7 µM and the “Emax (%) +GSH” value turned out to be 84%. In series [4] (−GSH), the EC50 was determined as 6 µM and the “Emax (%) −GSH” value was determined as 148%. In the series with mouse hepatocytes, the “Clint (μL min^−1 10^−6 cells)” value came out at 56 μL min^−1 10^−6 cells and the “T½” value is 34 min.
`C=C(CC(=O)OC1CCc2c(Cl)cc(Cl)cc21)C(=O)O[C@@H](CC(=O)O)C(F)(F)F` (single isomer, unassigned; diastereomer b) [Example 23]: the IC50 in series [1] (setting [6]) and in series [2] was 1.2 µM each time. Besides, the “Clint (μL min^−1 10^−6 cells)” value is reported as 190 μL min^−1 10^−6 cells in the series on human hepatocytes and over 460 μL min^−1 10^−6 cells with mouse hepatocytes. Also, the values for the half-life at 10 μM in series [3] and in series [5] were 9 min and under 3 min, respectively.
In series [1] (differentiated THP-1 cells), `C=C(CC(=O)OC1CCc2ccc(OC(F)(F)F)cc21)C(=O)OCC(=O)O` (single isomer, unassigned; enantiomer 1) [Example 28, 2-((2-methylene-4-oxo-4-((6-(trifluoromethoxy)-2,3-dihydro-1H-inden-1-yl)oxy)butanoyl)oxy)acetic acid (Enantiomer 1)] displayed an IC50 of 7.6 µM. For the same compound, in series [2], the IC50 is 11.7 µM. The “Clint (μL min^−1 10^−6 cells)” value with human hepatocytes is 21 μL min^−1 10^−6 cells. For the same compound, the half-life at 10 μM in series [3] is 75 min. Moreover, in series [4] (+GSH), the EC50 stood at 22.5 µM and the “Emax (%) +GSH” value amounted to 139%. Further, in series [4] (−GSH), the EC50 was found to be 8 µM and the “Emax (%) −GSH” value was determined as 160%. In the series on mouse hepatocytes, the “Clint (μL min^−1 10^−6 cells)” value is recorded as 49 μL min^−1 10^−6 cells and the “T½” value was found to be 32 min.
For `C=C(CC(=O)OC1(C)Cc2cc(Cl)c(Cl)cc2C1)C(=O)OCC(=O)O` [Example 21, 2-((4-((5,6-dichloro-2-methyl-2,3-dihydro-1H-inden-2-yl)oxy)-2-methylene-4-oxobutanoyl)oxy)acetic acid], the concentration for half-maximal inhibition (IC50) was found to be 3.2 µM in series [1] (setting [6]) and 7.9 µM in series [2]. The “Clint (μL min^−1 10^−6 cells)” value in the series with human hepatocytes was 37 μL min^−1 10^−6 cells; in the series with mouse hepatocytes, 483 μL min^−1 10^−6 cells. Also, the half-life at 10 μM in series [3] worked out at 35 min; in series [5] it was 3 min. Also, the values for the EC50 in series [4] (+GSH) and in series [4] (−GSH) were 4 µM and 5.6 µM, respectively. In addition, in series [4] (+GSH), the “Emax (%) +GSH” value came out at 55%. In series [4] (−GSH), the “Emax (%) −GSH” value came out at 151%.
In the case of `C=C(CC(=O)OC1CCc2c(Cl)cc(Cl)cc21)C(=O)O[C@H](CC(=O)O)C(F)(F)F` (single isomer, unassigned; diastereomer a) [Example 22], the results for the IC50 in series [1] (setting [6]) and in series [2] were 1.2 µM and 1.7 µM, respectively. For the same compound, the “Clint (μL min^−1 10^−6 cells)” value with human hepatocytes is recorded as 252 μL min^−1 10^−6 cells; in the series with mouse hepatocytes it was over 460 μL min^−1 10^−6 cells. Besides, the half-life at 10 μM in series [3] was 7 min; in series [5], under 3 min.
For `C=C(CC(=O)OC1CCc2ccc(OC(F)(F)F)cc21)C(=O)OCC(=O)O` (stereo not shown) [Example 18, 2-((2-methylene-4-oxo-4-((6-(trifluoromethoxy)-2,3-dihydro-1H-inden-1-yl)oxy)butanoyl)oxy)acetic acid], 2.1 µM corresponded to half-maximal inhibition in series [2] (IC50). In addition, in series [4] (+GSH), the EC50 was found to be 18.4 µM and the “Emax (%) +GSH” value is recorded as 105%. In addition, in series [4] (−GSH), a half-maximal response (EC50) required 8.7 µM and the “Emax (%) −GSH” value was determined as 121%. For the same compound, in series [5], the half-life at 10 μM is 10 min. Moreover, in the series with mouse hepatocytes, the “Clint (μL min^−1 10^−6 cells)” value is 146 μL min^−1 10^−6 cells.
Consider `C=C(CC(=O)OC1CCc2c(Cl)cc(Cl)cc21)C(=O)OCCC(=O)O` (single isomer, unassigned; enantiomer 1) [Example 14, 3-((4-((4,6-dichloro-2,3-dihydro-1H-inden-1-yl)oxy)-2-methylene-4-oxobutanoyl)oxy)propanoic acid (Enantiomer 1)], for which the IC50 in series [2] worked out at 2.8 µM. In addition, the “Clint (μL min^−1 10^−6 cells)” value was found to be 19 μL min^−1 10^−6 cells in the series on human hepatocytes and 224 μL min^−1 10^−6 cells in the series on mouse hepatocytes. Also, the half-life at 10 μM in series [3] was 75 min; in series [5] it was 7 min. Also, the EC50 came to 36.7 µM in series [4] (+GSH) and 27.8 µM in series [4] (−GSH). Further, the “Emax (%) +GSH” value in series [4] (+GSH) was 118%. In addition, in series [4] (−GSH), the “Emax (%) −GSH” value was 193%.

As usually defined, the IC50 is the point on the concentration scale where inhibition reaches its midpoint. High values mean weaker potency in that assay, low ones greater potency in that assay. For orientation: EC50 means the concentration that produces a half-maximal response. Lower therefore signals higher potency in that assay.
